The text below walks through data of patent US20010041676A1, “Glycosides and orthoester glycosides of glucocorticoids and uses thereof” (priority 2000, published 2001).

Where two headings read alike, the source gives them in different places.

Data set [1] is described as follows: in vivo. The settings on record: rat, serum, 20 mg.
Experimental: (§1) 1 ml of rat serum was introduced into Varian-abselut (3 ml) cartridge (Part number SP12103100; analytical sample preparation and solid phase extraction use cartridge). Suction was applied and the cartridge was washed with 3 ml of water followed by 2 ml of water. The cartridges were dried under suction for 5 minutes and a jet stream of argon was blown to dry the trace amounts of water. The cartridge was washed once with 3 ml of hexane and the steroidal portion was eluted with 5 ml of methanol. The methanol portion was dried under nitrogen. The dried extract, which contains prednisolone or the glucoside, was constituted with 300 μl of ethyl acetate-methanol mixture (290 μl of ethyl acetate and 10 μl of methanol). 100 μl injections were made using manual injections in the HPLC instrument.
(§2) Hewlett Packard-Agilent 1100 series instrument with UV detector G1315A and a manual injector with a 100 μL loop were used in the assay.
(§3) The solvents used in the elution were a mixture of methanol (2 parts), ethyl acetate (42 parts) and hexane (56 parts). The mixture was run at a flow rate of 1 ml per minute.
(§4) The serum prednisolone and prednisolone glucoside levels were assessed from the animals dosed with either 20 mg of prednisolone or 29 mg of prednisolone glucoside (20 mg equivalent). The animals were sacrificed after 30 minutes and 60 minutes.
(§5) The serum prednisolone levels were calculated based upon the HPLC analyses of prednisolone and prednisolone glucoside. These values are calculated based upon the mAU and area values calculated against the standards.
For data set [2] the following is noted: pH 1.0, 20 mg/ml, room temperature, up to 72 hours.
Experimental: The acid stability of prednisolone glucoside was qualitatively assessed by thin layer chromatography (TLC).
Prednisolone glucoside was suspended in pH 1.0 (freshly prepared from 10 M HCl solution) at a concentration of 20 mg/ml and stirred as a turbid solution at room temperature for 72 hours. At 24 and 48 hours, 100 μl aliquots were removed and diluted with about 200 μl of methanol to make a homogeneous solution. Approximately 50 μl was applied to a TLC plate (Sigma-Aldrich #Z 29298-2, made by Merck—silica TLC plates) with several repeated small applications. As controls, standard applications of 10 μg of fresh prednisolone glucoside, dissolved in 100 μl of methanol, and about 10 μg of prednisolone, in 50 μl of methanol, were applied at separate spots. Several repeated small applications were used to minimize the size of applied spot.
The TLC plates were initially eluted with ethyl acetate and then illuminated with the Aldrich's hand held model UV source (short UV light source used, Spectroline #1281657). The TLC plates were then dried, reeluted with methanol and then illuminated again with the UV source.
For data set [3] the following is noted: rat serum; for Serum prednisolone-glycoside: prednisolone-glucoside group (29 mg); for Serum Prednisolone: prednisolone-glucoside group (29 mg, 20 mg equivalent).
Experimental: as §1, §2, §3, §4, §5

In data set [1], `C[C@]12C=CC(=O)C=C1CC[C@@H]1[C@@H]2[C@@H](O)C[C@@]2(C)[C@H]1CC[C@]2(O)C(=O)CO` [Prednisolone, prednisolone] displayed a concentration at 30 min of 350 ng/mL and a concentration at 60 min of 156 ng/mL.

As for `C[C@]12C=CC(=O)C=C1CC[C@@H]1[C@@H]2[C@@H](O)C[C@@]2(C)[C@H]1CC[C@]2(O)C(=O)CO[C@@H]1O[C@H](CO)[C@@H](O)[C@H](O)[C@H]1O` [Prednisolone-glucoside, 1,4-pregnadiene-11β-17α-diol-21-O-1′-β′-glucopyranosyl-3,20-dione], in data set [2], the “Acid stability (qualitative, TLC)” value is listed as “stable”. Besides, in data set [3] (30 mins), the Serum prednisolone-glycoside was determined as 639 ng/mL and the “Serum Prednisolone” value turned out to be 861 ng/mL. Also, in data set [3] (60 mins), the Serum prednisolone-glycoside is 0 ng/mL and the “Serum Prednisolone” value was 349.5 ng/mL.
